Data set [1] in a line: Repeated dose pharmacokinetics, clinical dosing regimen. It is filed as in vivo, human. As to conditions: 400 mg TID for 5 days. How it is done: Plasma accumulation of pleconaril was modest (approximately two fold) when pleconaril was administered according to the clinical dosing regimen (400 mg TID for 5 days). The long terminal half-life had only a modest influence on pleconaril plasma concentration-time profiles for the clinical dosing regimen. The repeated dose pharmacokinetic profile of pleconaril was predictable from single dose data and, thus, the pharmacokinetic profile of pleconaril was time independent (FIG. 2).

For data set [2], the system named is HRV3. Description: Time of drug addition. It is filed as cell-based, human rhinovirus. How it is done: To determine the stage in the virus replication cycle that is affected by pleconaril, time of drug addition studies were conducted. Pleconaril was added to cells either during viral attachment or at various times thereafter. Viral replication was allowed to proceed for a single cycle of growth (10-12 hours), at which time the cells were lysed by a freeze-thaw cycle, residual pleconaril was removed by chloroform extraction, and virus yield was determined in the cytopathic effect assay. A 2 μM concentration of pleconaril inhibited greater than 90% of the yield of HRV3 from a single cycle of growth if present during the virus attachment period.
Twenty-four well plates (Costar 3524) of HeLa cells were infected in duplicate with 250 μL of HRV3 in M199 medium with 5% FBS at a multiplicity of infection (MOI) of approximately 1 PFU/cell for 1 hour at room temperature. During a treatment (the “−1 h” timepoint), one set of duplicate wells for each virus received 2 μM pleconaril, while the remaining wells received DMSO (0.5% final concentration). After attachment, the cells were washed twice with 1 mL of DPBS, and then overlaid with fresh medium. Pleconaril (2 μM final concentration) was added to the wells at the indicated times. The plates were incubated at 33° C. (HRV3) for 10 hours, at which time they were frozen at −80° C. […]

The subject of data set [3] is HRV3. Description: Uncoating inhibition. In kind it is cell-based, human rhinovirus. The settings on record: 2 μM, 2 hours at 33° C. How it is done:
Following attachment to susceptible cells, rhinoviruses are endocytosed and disassembled or uncoated in order to release the viral RNA for subsequent gene expression and RNA replication. To determine if pleconaril affected the uncoating stage of the virus infection cycle, two types of experiments were carried out. In the first approach, an experiment was conducted to follow directly the fate of intact ^35S-radiolabeled (156S) virions attached to cells that were then allowed to proceed through virion disassembly (uncoating) in either the absence or presence of pleconaril. HRV3 virus was chosen for this experiment, as it is representative of the respective genera, and because binding of pleconaril was fully reversible with dilution, minimizing the possibility of drug carryover issues.
After virion attachment, either pleconaril (2 μM) or DMSO control solution was added to the cultures. After an additional 1 hour, the culture was shifted to 33° C., a temperature that permitted virus uncoating. After 2 hours, cell lysates were prepared and the amount of intact 156S virions was assessed by sedimentation of the lysates on continuous sucrose density gradients. […]

One may read the inhibition as the drop in the measured response relative to a control, in per cent. Turning to `Cc1cc(CCCOc2c(C)cc(-c3noc(C(F)(F)F)n3)cc2C)on1` [pleconaril, 3-[3,5-dimethyl-4-[3-(3-methyl-5-isoxazolyl)propoxy]phenyl]-5-(trifluoromethyl)-1,2,4-oxadiazole], in data set [1], the plasma accumulation result is “approximately two”. In the data set on HRV3 [2] (2 μM, drug addition after attachment (0 hour timepoint)), the “reduction in virus yield” value is on record as under 1 log10. Besides, the inhibition at 2 µM in the data set on HRV3 [2] (Human rhinovirus sp., HRV3, present during the virus attachment period, read-out: inhibition of the yield of HRV3 from a single cycle of growth) is over 90%. Besides, the “reduction in the amount of attached intact 156S virions (uncoating)” value in the data set with HRV3 [3] is listed as “minimal reduction”.
